SMILES strings stand for the structures.

Series [1] concerns herpes simplex virus 1 (HSV 1), strain Angelotti. The experiment in a line: Antiviral action of D609 against HSV 1 (cytopathogenic effect) in monkey renal cells. It counts as cell-based. The note with it: for D609 concentration necessary to reduce the number of the infected cultures by 50%: monkey renal cells (Rita line). As to the method:
Monkey renal cells (Rita line) were infected in Linbro plates with 20 plaque-forming units of herpes simplex virus 1 (HSV 1), strain Angelotti. After 15 min, fresh cell culture medium (adjusted to pH 6.8 by reduction of the amount of sodium bicarbonate to 0.85 g/l and addition of 1 ml of 1 N HCl) which contained either 0, 5, 10, 15, 20, 25 or 30 μg/ml of D609 was added. All batches were carried out in quadruplicate. At the same time, cultures containing D609 and a fourfold concentration of cholesterol or containing cholesterol alone were treated. After 5 days, the monkey renal cells were lyzed in all untreated cultures by means of the cytopathogenic effect (cpe). After a further three days, the number of the cultures with cpe was determined for each D609 concentration. As can be inferred from FIG. 2, the number of cultures with cpe decreases with increasing D609 dose. The antiviral action of D609 was increased by cholesterol. While without cholesterol 25 μg/ml of D609 were necessary in order to reduce the number of the infected cultures by 50%, in the presence of cholesterol only 10 μg/ml of D609 were necessary. Cholesterol alone had no effect on the replication of HSV. Up to the highest concentration (120 μg/ml), all cultures were lyzed by HSV 1.

Series [2] is described as follows: Stability of D609 in aqueous solution (pH increase as measure of decomposition). It counts as physicochemical. The note with it: 1 mg/ml D609 in distilled water, 37° C. As to the method: D609 was dissolved in distilled water in a concentration of 1 mg/ml. 100 ml of this solution in each case were filled into a 200 ml Erlenmeyer flask. One of two solutions was treated with 1 g of cholesterol. Both solutions were incubated at 37° C. The pH of the solutions was determined at regular intervals. D609 decomposes in the presence of water to give tricyclodecanol, carbon disulfide and KOH. The pH of the solution increases with the formation of KOH. The increase in the pH is therefore a measure of the decomposition of D609.

The subject of series [3] is hairless mice (strain Swiss CD3, Nu/Nu). Description: Irritating action of D609 ointments on hairless mice. The settings on record: for number of animals with slight erythema: 10 mice per group.
Experimental: (§1) D609 was mixed in a mortar together with the same proportion by weight of potassium salt of decanoic acid and two parts by weight of phosphatidylcholine or two or four parts by weight of cholesterol. After this, sufficient highly liquid paraffin oil and petroleum jelly (1 part by weight of paraffin oil, 4 parts by weight of petroleum jelly) were added such that in each case a concentration of 1.25; 2.5; 5.0; or 10% of D609 was achieved. In the same manner, D609-containing ointments without phosphatidylcholine or cholesterol were prepared.
(§2) 100 mg of ointment were applied twice in the neck region to 10 hairless mice each (strain Swiss CD3, Nu/Nu) at an interval of four hours. 12 hours after the last application, the degree of irritation was read off. The irritation was assessed according to the following scheme: slight erythema 0.5; severe erythema 1.0; ulceration 2.0.
Series [4] shares this test system. The settings on record: mouse, in vivo.
Experimental: as §1, §2
The next series has as its system herpes simplex virus 1. Description: Antiviral use of D609 ointment in animal experiments (background). The format is in vivo.
Series [5] in a line: Tolerability of D609 / xanthates in ointments (background). The note with it: ointment.
The mark [6] stands for this setting: ointments with 4 parts by weight of cholesterol, 10% D609.
Setting [7] is: ointments with two parts by weight of cholesterol (plus same weight of potassium salt of decanoic acid).

On to `CC(C)CCC[C@@H](C)[C@H]1CC[C@H]2[C@@H]3CC=C4C[C@@H](O)CC[C@]4(C)[C@H]3CC[C@]12C` [Cholesterol, cholesterol], for which the “effect on the replication of HSV” value in series [1] (cholesterol alone, up to the highest concentration (120 μg/ml), all cultures were lyzed) is “no effect”.

As to `S=C(S)OC1CC2CC1C1CCCC21` (centres unmarked) [D609, tricyclodecan-9-yl xanthate], in series [2] (100 ml treated with 1 g of cholesterol, after 72 hours), the “pH increase and thus decomposition” value was “only a small pH increase”. Besides, in series [2] (without cholesterol), the “time within which marked decomposition is seen” value was not above 6 h. Further, the “D609 concentration necessary to reduce the number of the infected cultures by 50%” value is 10 µg/mL in series [1] (in the presence of a fourfold concentration of cholesterol, pH 6.8) and 25 µg/mL in series [1] (without cholesterol, pH 6.8, cpe read after 8 days). In addition, the “factor by which antiviral action of D609 is improved by cholesterol” value in series [1] (pH 6.8, with versus without cholesterol) was more than 2.5. Besides, the degree of irritation result is listed as “marked irritation” in series [3] (2.5% D609 in pure petroleum jelly ointment without phosphatidylcholine or cholesterol, 100 mg applied twice, read 12 hours after last application); “very strongly pronounced” in series [3] (5% D609 in pure petroleum jelly ointment without phosphatidylcholine or cholesterol, 100 mg applied twice, read 12 hours after last application); “almost free of irritant action” in series [3] (setting [6]); “marked decrease in the symptoms” in series [3] (setting [7]). In addition, the “number of animals with slight erythema” value is on record as “one” in series [3] (ointments containing four parts by weight of phosphatidylcholine, 5% D609); “five” in series [3] (ointments containing four parts by weight of phosphatidylcholine, 10% D609); “one” in series [3] (setting [6]). Moreover, the “D609 concentration at which a significant irritation occurred” value in series [3] (setting [7]) amounted to 10%. For the same compound, the tolerability result in series [4] is given as “marked improvement in the tolerability”. In addition, the “concentration needed in an ointment for effective antiviral use” value in the series with herpes simplex virus 1 was “at least 2.5%”. Moreover, the “maximum tolerable concentration in ointments” value in series [5] was found to be 1%.

For the origin of these results see patent US20040122086A1, “Method for the production of anhydrous, pharmaceutical formulations of xanthogenates” (priority 2001, published 2004).
